Data reported in patent publication US20260306525A1, “COMBINATION THERAPY GLUCOCORTICOIDS AND GINSENOSIDE” (FYTAGORAS B.V., priority 2023, published 2026).

Tests used:
zebrafish larvae [1] = test: tail fin regeneration assay; conditions: Example 3, ginsenoside Re
Procedure: In experiments in which the length of regenerated tail fin tissue after wounding, or the larval body length, was used as a readout, chemical treatments were started at 2 hours post-fertilization (hpf) and continued until 5 dpf, as indicated (15 larvae per treatment group). During this period, solutions were refreshed daily. For the regeneration experiments, tail fins were amputated at 2 dpf. At 5 dpf, larvae were fixed overnight in 4% PFA at 4° C. For determination of the larval length and the regeneration of the tail fins, larvae were imaged using a LeicaMZ16FA fluorescence stereomicroscope supported by LAS 3.7 software. The length of the entire larva or the newly grown tissue was measured using ImageJ software. The newly grown tissue can be visually distinguished from the old tissue, enabling precise measurement of its length.

neutrophils = test: zebrafish tail fin wounding assay, neutrophil migration to wounded site; format: in vivo, zebrafish (Danio rerio); conditions: Example 3, ginsenoside Re
Procedure: (§1) Zebrafish (Danio rerio) were maintained and handled according to the guidelines from the Zebrafish Model Organism Database (http://zfin.org) and in compliance with the directives of the local animal welfare committee of Leiden University. Zebrafish were exposed to a 14 h light and 10 h dark cycle to maintain circadian rhythmicity. Fertilization was performed by natural spawning at the beginning of the light period. […] The following zebrafish lines were used in this study: the double transgenic line Tg(mpx:GFP^i114/mpeg1:mCherry^umsF001), in which neutrophils and macrophages are fluorescently labeled (green and red, respectively), and the Tg(9xGCRE-HSV.UI23:EGFP)^ia20 reporter line, in which the gene encoding enhanced green fluorescent protein (EGFP) is driven by a GRE-containing promoter.
(§2) For the tail fin wounding experiments, 20 larvae at 2 or 3 days post-fertilization (dpf) were utilized for each experimental group. For wounding, larvae were anesthetized in egg water containing 0.02% buffered aminobenzoic acid ethyl ester (tricaine; Sigma-Aldrich). Larvae were placed on Petri dishes coated with 2% agarose under a Leica M165C stereomicroscope (Leica Microsystems, Wetzlar, Germany), and the tails were partly amputated using a 1-mm sapphire blade (World Precision Instruments, Sarasota, FL, USA). For quantification of leukocyte migration, larvae were fixed overnight in 4% paraformaldehyde (PFA) at 4° C. The next day, fixed larvae were washed with Phosphate Buffered Saline (PBS) containing 0.1% Tween 20, and stored at 4° C. until imaging.
(§3) The macrophages were detected based on their red (mCherry) fluorescence, and neutrophils based on their green (EGFP) fluorescence. To quantify the number of macrophages and neutrophils recruited to the wounded area, the cells in a defined area of the tail were determined by blinded manual counting.
(§4) Zebrafish (Danio rerio) were maintained and handled according to the guidelines from the Zebrafish Model Organism Database (http://zfin.org) and in compliance with the directives of the local animal welfare committee of Leiden University. Zebrafish were exposed to a 14 h light and 10 h dark cycle to maintain circadian rhythmicity. Fertilization was performed by natural spawning at the beginning of the light period. […] The following zebrafish lines were used in this study: AB/TL wild type, the transgenic lines Tg(mpx:GFP^i114/mpeg1:mCherry^umsF001)[14, 15], and Tg(9xGCRE-HSV.UI23:EGFPia^20)[16], and the mutant lines grs357[20].
(§5) For the tail fin wounding experiments, 2- or 3-days post-fertilization (dpf) larvae were anesthetized in egg water containing 0.02% buffered aminobenzoic acid ethyl ester (tricaine; Sigma-Aldrich). Larvae were placed in Petri dishes coated with 2% agarose under a Leica M165C stereomicroscope (Leica Microsystems, Wetzlar, Germany), and the tails were partly amputated using a 1-mm sapphire blade (World Precision Instruments, Sarasota, FL, USA).
(§6) In experiments in which the leukocyte migration was used as a readout, larvae were subjected to treatment with chemicals as indicated, starting at 2 h before the amputation (pretreatment), and treatment was continued for 4 h after the tail fin amputation (20 larvae per group, unless indicated otherwise). In some experiments, a 24 h treatment with MZ31 (10 μM) was started at 2 dpf, and these treatments were continued during the pretreatment and treatment with the other chemicals. At 4 h after amputation, the larvae were fixed in 4% paraformaldehyde (PFA) overnight at 4° C. The next day, fixed larvae were washed with Phosphate Buffered Saline (PBS) containing 0.1% Tween 20 and stored at 4° C. until imaging. […] The macrophages were detected based on red (mCherry) fluorescence and neutrophils on their green (EGFP) fluorescence. To quantify the number of macrophages and neutrophils recruited to the wounded area, the cells in a defined area of the tail were determined by blinded manual counting. […]

macrophages = test: zebrafish tail fin wounding assay, macrophage migration to wounded site; format: in vivo, zebrafish (Danio rerio); conditions: Example 3, ginsenoside Re
Procedure: as §1, §2, §3, §4, §5, §6

zebrafish larvae [2] = test: whole-body cortisol measurement of zebrafish larvae (ELISA); conditions: Example 3, ginsenoside Re
Procedure: Ethyl acetate was added to the homogenate. The homogenates were then centrifuged at 4° C. for 8 min at 11,000 rpm and the supernatant was collected and vaporized. A volume of 150 μl of 0.2% Bovine serum albumin (Sigma-Aldrich) dissolved in PBS was added to the samples and frozen. Whole-body cortisol levels of the zebrafish larvae were determined by ELISA (Demeditec Diagnostics GmbH, Kiel-Wellsee, Germany), following the manufacturer's instructions. In each experiment, three biological replicates were used for each treatment group, and the ELISA was performed using technical duplicates.
Tail fin wounding were performed at 2 days post-fertilization (dpf). At 96hpf, the treatments were stopped, and larvae were incubated in egg water until 5 dpf to avoid cross-reactivity between the compounds and the cortisol antibody used in the ELISA. At dpf, the larvae were collected in an Eppendorf tube (30 larvae per sample), and 100 μl of ice-cold egg water was added. After the excess water had been taken out, the samples were glaciated in ethanol (EtOH)/dry-ice bath. Subsequently, the larvae were homogenized using a BulletBlender® for 3 min at 8,000 rpm. Ethyl acetate was added to the homogenate. The homogenates were then centrifuged at 4° C. for 8 min at 11,000 rpm, and the supernatant was collected and vaporized. A volume of 150 μl of 0.2% bovine serum albumin (Sigma-Aldrich) dissolved in PBS was added to the samples and frozen. Whole-body cortisol levels of the zebrafish larvae were determined using a Cortisol free in Saliva ELISA kit (Demeditec Diagnostics GmbH, Kiel-Wellsee, Germany), following the manufacturer's instructions. In each experiment, three biological replicates were used for each treatment group, and the ELISA was performed using technical duplicates.

zebrafish larvae [3] = test: whole-body glucose measurement of zebrafish larvae; conditions: Example 3, ginsenoside Re
Procedure: In each experiment, three biological replicates were used for each treatment group, and the colorimetric assay was performed using technical duplicates.
Tail fin wounding were performed at 2 days post-fertilization (dpf). At 5 dpf, the larvae (15 per sample) were placed in egg water for 1 h and collected in an Eppendorf tube, washed in egg water (3 times for 10 min). Subsequently, 100 μL of ice-cold glucose buffer was added to each sample, and the larvae were homogenized using a BulletBlender® for 3 min at 8,000 rpm. The homogenates were then centrifuged at 4° C. for 8 min at 11,000 rpm and the supernatant was stored at −20° C. Whole-body glucose concentrations were determined using a Glucose Colorimetric Assay kit (Cayman Chemical, Ann Arbor, MI, USA), according to the manufacturer's instructions. In each experiment, three biological replicates were used for each treatment group, and the colorimetric assay was performed using technical duplicates.

[4] = micelle formation from dried film dissolved in H2O; appearance of solution; format: physicochemical
Procedure: Dried leaves of the plant Panax ginseng (8 gram) were boiled in water (350 mL), filtrated and loaded on a 20 mL Bed Volume (BV) column filled with macroporous resin (type D101). After extensively washing with water (15 BV's) the ginsenosides were eluted with 60% EtOH. The ginsenoside solution was decolorized by passing through a 20 mL BV column filled with type D941 macroporous resin. Subsequently, the solvents were slowly evaporated, after at 80° C. under reduced pressure (375 hPa) using a glass vials and a evaporator (P12-Multivapor, Buchi). After evaporation of both the ethanol and the water, a transparent film was formed on the wall of the glass vial.
In parallel 100 mg pure Re was solved in 10 mL of ethanol. […] The ethanol was slowly removed at 80° C. under low pressure (375 hPa) using a glass vials and a evaporator (P12-Multivapor). Again a clear film was formed on the wall of the glass tubes.
Micelle formation of ginsenoside extract obtained from dried leaves as described above was repeated in the presence of 0.6 mg of dexamethasone. Dexamethasone was first dissolved in ethanol in a concentration of 10 mg/mL and 0.6 mg of dexamethasone was added to the ethanolic ginsenoside fraction obtained after purification and decolorization by D101 and D941 resins respectively, using the method described herein above. The content of Re and Rg1 in this ethanolic ginsenoside fraction was 4 mg/10 mL as determined by HPLC (see below). The molecular ratio between dexamethasone and Re/Rel in this solution was around 5:70. The ethanol fraction was slowly removed at 80° C. under reduced pressure (375 hPa) using a glass vials and a evaporator to obtain a film. […] The content and the presence of micelles were assessed by size exclusion chromatography as described below.

GR protein = test: western blot GR protein level in HeLa cells; format: cell-based, human; conditions: 5 μg/ml; cells treated with vehicle, beclomethasone, Rg1 or combination
Procedure: HeLa (human cervical cancer) cells were cultured in Dulbecco's Modified Eagle's (DMEM) High Glucose (HG) medium without phenol red supplemented with 10% Fetal Calf Serum (FCS) and 10% Glutamax (Sigma-Aldrich). The cells were maintained at 37° C. and 5% CO2. At 24 h before adding the treatment, the medium was replaced by DMEM HG with 10% charcoal-inactivated serum and 10% Glutamax (Sigma-Aldrich). The cells were exposed to short- and long-term compound treatments. […] Subsequently, TNF-α (10 ng/ml) was added along with the compound treatments for 6 h (this last step was not added in the actinomycin-D and cycloheximide experiments).
Western blots were conducted to determine GR protein levels in HeLa cells. The cells were seeded as described previously in 6-well plates. The cells were exposed to short- and long-term compound treatments. […] Cells were harvested using trypsin (0.25% (v/v) trypsin in PBS, no EDTA), washed twice with PBS, and centrifuged. After centrifuging for 3 min at 3,000 rpm, cell pellets were stored at −80° C. until use. Cells were homogenized in potassium phosphate (KPi lysis buffer; 25 mM K2HPO4—KH2PO4 (pH 6.5)+0.1% (v/v) Triton X-100 (Merck, Darmstadt, Germany)) by sonication (20% amplitude, 3 s on, 3 s off for 4 cycles), using a Vibra-Cell™ VCX 130 sonicator (Sonics, Newtown, CT, USA), while on ice. The total protein concentration of the homogenates was determined using the Quickstart Bradford protein assay (Bio-Rad Laboratories) and measured using an EMax® plus microplate reader (Molecular Devices, Sunnyvale, CA, USA). HeLa cell homogenates (30 μg protein in 10 μl) were added to 30 μl Laemmli sample buffer, vortexed, and, boiled for 5 min at 98° C. Of each sample, 15 μl was loaded in duplicate on a 12% gradient precast SDS-PAGE gel (Bio-Rad Laboratories), and run for approximately 2 h at 90 V (no duplicates were used in the cycloheximide experiment). The experiments were performed 4 times (6 times for the cycloheximide experiment). After running the gel, proteins were transferred to a nitrocellulose membrane (Thermo Fisher Scientific) by using Bio-Rad Power Pac Basic Mini Electrophoresis System at 100 V for 1 h. The blot was washed in a blocking buffer (Tris-buffered saline containing 0.1% Tween-20 (TBST) with 3% BSA) 3 times for 15 min at room temperature. A primary GR antibody (Glucocorticoid Receptor Recombinant Rabbit Monoclonal Antibody (2D8, ThermoFisher Scientific)) at a 1:500 dilution in TBST with 3% BSA was added to the blots and incubated overnight at 4° C. The next day, the blot was washed with TBST 3 times for 5 min. Then, an HRP-conjugated anti-rabbit secondary antibody (Sigma-Aldrich) at 1:2000 dilution in TBST with 3% BSA was added and incubated at room temperature for 2 h. The blot was washed 3 times for 5 min in TBST with 3% BSA and twice for 5 min with TBST. The blot was incubated with 10 ml of Pierce™ enhanced chemiluminescence (ECL) western blotting substrate (ThermoFisher Scientific) for 1-2 min. Chemiluminescence was detected using a ChemiDoc MP imager (Bio-Rad Laboratories) at an exposure time of 1 min. The blot was washed 3 times for 5 min in TBST, then washed for 1 h in TBST with 3% BSA. A β-actin antibody (MA1-91399, ThermoFisher Scientific) was added at a 1:2000 dilution in TBST with 3% BSA to the blot and incubated overnight at 4° C. The next day, the blot was washed 3 times for 5 min in TBST with 3% BSA. Then, an HRP-conjugated anti-mouse secondary antibody (Sigma-Aldrich) at a 1:2000 dilution in TBST with 3% BSA was added and incubated at room temperature for 2 h. Subsequently, the blot was washed 3 times for 5 min in TBST. The blot was incubated with 10 ml of ECL substrate for 1-2 min, and chemiluminescence was visualized. The intensities of the GR and β-actin bands were quantified using ImageJ software, and the GR level was normalized to the level of β-actin.

SMILES	regenerative tissue (zebrafish larvae [1])	migration of neutrophils to the wounded tail area (neutrophils)	migration of macrophages (macrophages)	whole body cortisol (zebrafish larvae [2])	whole body glucose (zebrafish larvae [3])	appearance of solution in ethanol ([4]; 100 mg in 10 mL of ethanol)	appearance of solution in H2O after dissolving the film ([4]; film from ethanol (or 60% EtOH) evaporation, dissolved in H2O)	micelle formation / crystallization in H2O ([4]; microscopic determination, 10 mL H2O)	GR protein concentration, effect of cycloheximide (GR protein)
CC(C)=CCC[C@](C)(O[C@@H]1O[C@H](CO)[C@@H](O)[C@H](O)[C@H]1O)[C@H]1CC[C@]2(C)[C@@H]1[C@H](O)C[C@@H]1[C@@]3(C)CC[C@H](O)C(C)(C)[C@@H]3[C@@H](O[C@@H]3O[C@H](CO)[C@@H](O)[C@H](O)[C@H]3O[C@@H]3O[C@@H](C)[C@H](O)[C@@H](O)[C@H]3O)C[C@]12C [Re, (3β, 6α, 12β)-20-(β-D-Glucopyranosyloxy)-3, 12-dihydroxydammar-24-en-6-yl 2-O-(6-deoxy-α-L-mannopyranosyl)-β-D-glucopyranoside]	did not affect regenerative tissue	inhibited the migration of neutrophils to the wounded tail area	did not inhibit the migration of macrophages	no side effects could be observed	no side effects could be observed	clear solution	cloudy solution	crystallization of Re (FIG. 12B) and no micelles were obtained	
C[C@@H]1C[C@@H]([C@H](O)CC2CC(=O)NC(=O)C2)C(=O)[C@@H](C)C1 [cycloheximide]									significantly reduced the GR mRNA and protein concentration
